# Reference: publication doi:10.1101/2024.11.03.621781v1 (bioRxiv, 2024)
# What was measured:
# Assay type in all cases: cell-based
# [1] = system: HeLa cells; assay: Autophagy flux assay with Bafilomycin A1, LC3B/LAMP2 double immunofluorescence; conditions: control cells treated with BafA1
# [2] = system: HeLa cells; assay: LC3B lipidation assay by western blot; conditions: GAPDH loading control
# [3] = system: HeLa cells; assay: LC3B immunofluorescence, autophagy induction; conditions: time-dependent LC3B immunostaining, then return to baseline
Compound,autophagosome accumulation (LC3B puncta) in control cells [1],LC3B-II/LC3B-I ratio (LC3B lipidation) [2],time of peak autophagy induction [3]
"CO/C1=C\C(C)=C\[C@@H](C)[C@@H](O)[C@@H](C)C/C(C)=C/C=C/[C@H](OC)[C@@H]([C@@H](C)[C@@H](O)[C@H](C)[C@@]2(O)C[C@@H](O)[C@H](C)[C@@H](C(C)C)O2)OC1=O [BafA1, Bafilomycin A1]",marked accumulation of autophagosomes,–,–
CO[C@H]1C[C@@H]2CC[C@@H](C)[C@@](O)(O2)C(=O)C(=O)N2CCCC[C@H]2C(=O)O[C@H]([C@H](C)C[C@@H]2CC[C@@H](O)[C@H](OC)C2)CC(=O)[C@H](C)/C=C(\C)[C@@H](O)[C@@H](OC)C(=O)[C@H](C)C[C@H](C)/C=C/C=C/C=C/1C [rapamycin],–,increased LC3B- II/LC3B-I ratio,90 min
